# Data from patent US20230255970A1, “COMPOSITIONS AND METHODS FOR TREATING PROLIFERATIVE DISEASES” (The Broad Institute, Inc., priority 2020, published 2023).
# What was measured:
# Format in all cases: cell-based, human
# [1] = test system: TRAF2 overexpression in U2OS cells; assay: Cell Painting morphological profile matching to TRAF2 overexpression; settings: Pearson correlation of Cell Painting signatures, U2OS cells
# Text: (§1) Of these, analysis of the 220 constructs that were most closely representative of the annotated full-length transcripts was prioritized. […] Not all genes are likely to impact cellular morphology given the limitation of the experiment; using a single cell line at a single time point under a single set of conditions and stained with six fluorescent labels.
# (§2) This standardization was done plate wise, based on the mean and standard deviation of the controls at profile level for the compound dataset. […] The signatures were then obtained by averaging the replicate profiles feature-wise. Pearson correlation was used on the aligned signatures of a gene and compound to score their connection.
# U2OS cells = assay: Cell count in U2OS Cell Painting images; settings: U2OS Cell Painting
# Text: as §1, §2
# [2] = test system: YAP1 overexpression in U2OS cells; assay: Cell Painting morphological profile matching to YAP1/TAZ overexpression signature; settings: Pearson correlation of Cell Painting signatures, U2OS cells
# Text: as §1
# FIG. 2 provides an example characterization of matching the morphological signature of a gene query to the signature(s) of compounds in a library. Connections which show both positive and negative large correlations are considered as matches.
# as §2
Compound,Corr. to TRAF2 [1],Avg. Cell Count z-score (U2OS cells),Corr. to YAP1 cluster [2]
"N#Cc1nn(-c2c(Cl)cc(C(F)(F)F)cc2Cl)c(N)c1[S+]([O-])C(F)(F)F (stereo not drawn) [BRD-A50675702, 5-amino-1-[2,6-dichloro-4-(trifluoromethyl)phenyl]-4-(trifluoromethane)sulfinyl-1H-pyrazole-3-carbonitrile]",−0.4752,−0.1188,0.5102
"Cc1ccc(S(=O)(=O)NC(=O)NN2CC3CCCC3C2)cc1 (stereo not drawn) [BRD-A61154809, 1-(3,3a,4,5,6,6a-hexahydro-1H-cyclopenta[c]pyrrol-2-yl)-3-(4-methylphenyl)sulfonylurea]",−0.3313,0.8203,0.4401
"CNC[C@@H]1Oc2c(NS(=O)(=O)c3ccc(F)cc3)cccc2C(=O)N([C@H](C)CO)C[C@H]1C [BRD-K00135177, 4-fluoro-N-[(2R,3R)-5-[(2R)-1-hydroxypropan-2-yl]-3-methyl-2-(methylaminomethyl)-6-oxo-3,4-dihydro-2H-1,5-benzoxazocin-10-yl]benzenesulfonamide]",−0.3649,0.4009,0.5004
"CN1c2cc3c(cc2N=C(c2ccc(C(=O)O)cc2)c2ccccc21)C(C)(C)CCC3(C)C [BRD-K06593056, 4-(5,7,7,10,10-pentamethyl-8,9-dihydronaphtho[2,3-b][1,4]benzodiazepin-13-yl)benzoic acid]",−0.4512,−0.7909,0.4357
"O=C(C[C@H]1CC[C@H](NC(=O)CCN2CCCCC2)[C@@H](CO)O1)Nc1nccs1 [BRD-K11266478, N-[(2S,3S,6R)-2-(hydroxymethyl)-6-[2-oxo-2-(1,3-thiazol-2-ylamino)ethyl]oxan-3-yl]-3-piperidin-1-ylpropanamide]",−0.4398,0.4851,0.4988
"Clc1nc(NCc2ccccc2)c2ccccc2n1 [BRD-K11758216, N-benzyl-2-chloroquinazolin-4-amine]",−0.4406,−1.202,0.5078
"C[C@H](CO)N1C[C@H](C)[C@H](CN(C)C)Oc2cc(C#Cc3ccccn3)ccc2S1(=O)=O [BRD-K13719685, (4S,5R)-5-((dimethylamino)methyl)-2-((R)-1-hydroxypropan-2-yl)-4-methyl-8-(pyridin-2-ylethynyl)-2,3,4,5-tetrahydrobenzo[b][1,4,5]oxathiazocine 1,1-dioxide]",0.3591,2.104,−0.4426
"COc1ccc(Cc2nccc3cc(OC)c(OC)cc23)cc1OC [BRD-K15567136, 1-[(3,4-dimethoxyphenyl)methyl]-6,7-dimethoxyisoquinoline]",−0.4936,−0.6568,0.4464
"C[C@H]1CN([C@@H](C)CO)C(=O)CCCn2nncc2CO[C@H]1CN(C)C(=O)Nc1cccc(Oc2ccccn2)c1 [BRD-K19969618, 1-[[(8S,9R)-6-[(2S)-1-hydroxypropan-2-yl]-8-methyl-5-oxo-10-oxa-1,6,14,15-tetrazabicyclo[10.3.0]pentadeca-12,14-dien-9-yl]methyl]-1-methyl-3-(3-pyridin-2-yloxyphenyl)urea]",−0.4667,0.7797,0.5483
"CCCC(=O)Nc1ccc2c(c1)C(=O)N(C)C[C@H](OC)[C@H](C)CN(Cc1ccccc1)[C@@H](C)CO2 [BRD-K22754756, N-[(4S,7R,8R)-8-methoxy-4,7,10-trimethyl-11-oxo-5-(phenylmethyl)-2-oxa-5,10-diazabicyclo[10.4.0]hexadeca-1(12),13,15-trien-14-yl]butanamide]",−0.297,−1.409,0.4966
"CO[C@H]1CN(C)C(=O)c2cc(NC(=O)C3CCCCC3)ccc2OC[C@@H](C)N(Cc2nccs2)C[C@@H]1C [BRD-K22874335, N-[(4R,7S,8R)-8-methoxy-4,7,10-trimethyl-11-oxo-5-(1,3-thiazol-2-ylmethyl)-2-oxa-5,10-diazabicyclo[10.4.0]hexadeca-1(12),13,15-trien-14-yl]cyclohexanecarboxamide]",−0.362,−1.704,0.4904
"O=C(C[C@@H]1C[C@H]2c3cc(NC(=O)C4CCC4)ccc3O[C@H]2[C@H](CO)O1)NCc1ccccn1 [BRD-K28043081, N-[(1S,3S,4aS,9aR)-1-(hydroxymethyl)-3-[2-oxo-2-(pyridin-2-ylmethylamino)ethyl]-3,4,4a,9a-tetrahydro-1H-pyrano[3,4-b][1]benzofuran-6-yl]cyclobutanecarboxamide]",−0.406,−0.5533,0.527
"O=C(NCC1CC1)[C@@H]1N[C@@H]2c3ccc(C4=CCCCC4)c(=O)n3C[C@@H]2[C@H]1CO [BRD-K37451830, (2R,3R,3aS,9bS)-7-(1-cyclohexenyl)-N-(cyclopropylmethyl)-3-(hydroxymethyl)-6-oxo-1,2,3,3a,4,9b-hexahydropyrrolo[2,3-a]indolizine-2-carboxamide]",−0.4167,−0.0043,0.4802
"CCCNC(=O)N1[C@@H]2c3ccc(-c4ccccc4OC)c(=O)n3C[C@H]1[C@H](CO)[C@H]2C(=O)NCC [BRD-K39839146, (1S,9R,10R,11R)-11-N-ethyl-10-(hydroxymethyl)-5-(2-methoxyphenyl)-6-oxo-12-N-propyl-7,12-diazatricyclo[7.2.1.02,7]dodeca-2,4-diene-11,12-dicarboxamide]",−0.4284,0.2185,0.4835
"O=C(C[C@H]1C=C[C@@H](NC(=O)Nc2cc(F)ccc2F)[C@H](CO)O1)NCCCN1CCOCC1 [BRD-K40143134, 2-[(2R,3R,6S)-3-[[(2,5-difluoroanilino)-oxomethyl]amino]-2-(hydroxymethyl)-3,6-dihydro-2H-pyran-6-yl]-N-[3-(4-morpholinyl)propyl]acetamide]",−0.3428,−0.1148,0.5009
"O=C(C[C@H]1CC[C@@H]2[C@H](COC[C@@H](O)CN2Cc2ccc3c(c2)OCO3)O1)N1CCCCC1 [BRD-K41723088, 2-[(3S,6aR,8R,10aR)-1-(1,3-benzodioxol-5-ylmethyl)-3-hydroxy-3,4,6,6a,8,9,10,10a-octahydro-2H-pyrano[2,3-c][1,5]oxazocin-8-yl]-1-piperidin-1-ylethanone]",−0.4389,−0.07095,0.4916
"O=c1c(-c2ccc(O)cc2)coc2cc(O)ccc12 [BRD-K42095107, 7-hydroxy-3-(4-hydroxyphenyl)chromen-4-one]",−0.372,−0.8813,0.4583
"CO[C@@H]1CN(C)C(=O)c2ccc(NC(=O)c3ccccc3F)cc2OC[C@H](C)N(CC2CC2)C[C@@H]1C [BRD-K42367391, N-[(5S,6S,9S)-8-(cyclopropylmethyl)-5-methoxy-3,6,9-trimethyl-2-oxo-11-oxa-3,8-diazabicyclo[10.4.0]hexadeca-1(12),13,15-trien-14-yl]-2-fluorobenzamide]",−0.2728,−0.9374,0.4887
